Measurements published in US20110117193A1, “ANTIRETROVIRAL DRUG FORMULATIONS FOR TREATMENT OF CHILDREN EXPOSED TO HIV/AIDS” (priority 2008, published 2011).

Assay: pH of suspensions
Format: physicochemical
Details: 0.2% w/v solution in water
Description: The effect of the suspending agent and sweetener on the pH and viscosity of the suspensions was examined. AVICEL® RC 591, alone and in combination with other potential formulation components, was suspended in water. The pH of the suspensions was measured using a pH meter. The viscosity of the suspensions was measured on a Brookfield […] RV series viscometer: spindle size 4 at 20 rpm was used. The suspensions were visually inspected for signs of precipitation, sedimentation, and consistency.

`OC[C@H]1O[C@H](O[C@]2(CCl)O[C@H](CCl)[C@@H](O)[C@@H]2O)[C@H](O)[C@@H](O)[C@H]1Cl` [sucralose] gave a pH of solution of 6.4.
